Measurements: patent publication US6133294A (priority 1999, dated 2000)

Legend:
Format in all cases: in vivo
Erysiphe graminis = assay: Powdery Mildew of Wheat (Erysiphe graminis--ERYSGT); details: wheat (cultivar Monon), 100 ppm spray to run off, inoculated after 24 hours; for pest or weed control at 100 ppm: Blumeria graminis, 1DP, read-out: control of plant disease, ERYSGT 1DP
Procedure: (§1) Compound Formulation: Compound formulation was accomplished by dissolving technical materials in acetone, with serial dilutions then made in acetone to obtain desired rates. Final treatment volumes were obtained by adding nine volumes 0.05% aqueous Tween-20 or Triton X-100, depending upon the pathogen.
Powdery Mildew of Wheat (Erysiphe graminis--ERYSGT): Wheat (cultivar Monon) was grown in a soilless peat-based potting mixture (Metromix) until the seedlings were 1-2 leaf (BBCH 12). These plants were then sprayed to run off with the test compound at a rate of 100 ppm. After 24 hours the test plants were inoculated with Erysiphe graminis by dusting spores from stock plants onto the test plants. The plants were then transferred to the greenhouse until disease developed on the untreated control plants.
(§2) the following table presents the activity of typical compounds of the present invention when evaluated in these experiments. The effectiveness of the test compounds in controlling disease was rated using the following scale: […]

Leptosphaeria nodorum = assay: Glume blotch of wheat (Leptosphaeria nodorum--LEPTNO); details: wheat (cultivar Monon), 100 ppm spray to run off, inoculated after 24 hours; for pest or weed control at 100 ppm: Parastagonospora nodorum, 1DP, read-out: control of plant disease, LEPTNO 1DP
Procedure: as §1
(§3) Glume blotch of wheat (Leptosphaeria nodorum--LEPTNO): Wheat (cultivar Monon) was grown from seed in a soilless peat-based potting mixture (Metromix) until the seedlings were 1-2 leaf (BBCH 12). These plants were then sprayed to run off with the test compound at a rate of 100 ppm. After 24 hours the test plants were inoculated with an aqueous spore suspension of Leptosphaeria nodorum. The plants were then transferred to the greenhouse until disease developed on the untreated control plants.
as §2

Phytophthora infestans = assay: whole plant or invertebrate; details: for pest or weed control at 100 ppm: Phytophthora infestans, 24 h, read-out: control of plant disease, PHYTIN 1DP; for control of plant disease, PHYTIN 1DP: tomatoes (cultivar Rutgers), 100 ppm spray to run off, inoculated after 24 hours
Puccinia recondita = assay: Brown rust (Puccinia recondita--PUCCRT); details: wheat (cultivar Monon), 100 ppm spray to run off, inoculated after 24 hours; for pest or weed control at 100 ppm: Puccinia recondita, 1DP, read-out: control of plant disease, PUCCRT 1DP
Procedure: as §1
as §3, with “Brown rust (Puccinia recondita--PUCCRT):” for “Glume blotch of wheat (Leptosphaeria nodorum--LEPTNO):”, “[…]).” for “1-2 leaf (BBCH 12).”, “Puccinia recondita.” for “Leptosphaeria nodorum.”
as §2

SMILES | pest or weed control at 100 ppm (Erysiphe graminis) | pest or weed control at 100 ppm (Leptosphaeria nodorum) | pest or weed control at 100 ppm (Phytophthora infestans) | pest or weed control at 100 ppm (Puccinia recondita) | control of plant disease, ERYSGT 1DP (Erysiphe graminis) | control of plant disease, LEPTNO 1DP (Leptosphaeria nodorum) | control of plant disease, PHYTIN 1DP (Phytophthora infestans) | control of plant disease, PUCCRT 1DP (Puccinia recondita)
CNC(=O)C(=NOC)c1ccccc1COc1ccc(-c2nc(C(C)(C)C)no2)cn1 [Example 65] | 75 to 100% | 75 to 100% | 0 to 24% | 75 to 100% |  |  |  | 
COC=C(C(=O)OC)c1ccccc1COc1ncc(-c2nc(C(C)(C)C)no2)cc1Cl [Example 100] | 25 to 74% | 25 to 74% | 75 to 100% | 75 to 100% |  |  |  | 
CCc1noc(-c2nc(OCc3ccccc3C(=NOC)C(=O)NC)ccc2Cl)n1 [Example 81] | 75 to 100% | 25 to 74% | 25 to 74% | 75 to 100% |  |  |  | 
CNC(=O)C(=NOC)c1ccccc1COc1ncc(-c2noc(-c3ccco3)n2)cc1Cl [Example 18] | 25 to 74% | 75 to 100% | 75 to 100% | 75 to 100% |  |  |  | 
CNC(=O)C(=NOC)c1cccc(Cl)c1COc1ncc(-c2noc(C(F)(F)F)n2)cc1Cl [Example 34] |  |  |  |  | ++ (75-100% control of plant disease) | ++ (75-100% control of plant disease) | - (0-24% control of plant disease) | ++ (75-100% control of plant disease)
CCCc1noc(-c2cnc(OCc3ccccc3C(=NOC)C(=O)NC)c(Cl)c2)n1 [Example 78] | 75 to 100% | 75 to 100% | 0 to 24% | 75 to 100% |  |  |  | 
CNC(=O)C(=NOC)c1ccccc1COc1ncc(-c2noc(-c3cccs3)n2)cc1Cl [Example 20] | 75 to 100% | 0 to 24% | 75 to 100% | 75 to 100% |  |  |  | 
CNC(=O)C(=NOC)c1ccccc1COc1ncc(-c2noc(C)n2)cc1Cl [Example 8] | 75 to 100% | 75 to 100% | 0 to 24% | 75 to 100% |  |  |  | 
CNC(=O)C(=NOC)c1ccccc1COc1ccc(-c2cc(C(C)C)on2)cn1 [Example 42] | 75 to 100% | 0 to 24% | 75 to 100% | 75 to 100% |  |  |  | 
CNC(=O)C(=NOC)c1ccccc1COc1ncc(-c2noc(COC)n2)cc1Cl [Example 23] | 75 to 100% | 25 to 74% | 0 to 24% | 75 to 100% |  |  |  | 
CCc1noc(-c2cccc(OCc3ccccc3C(=NOC)C(=O)NC)n2)n1 [Example 83] | 25 to 74% | 75 to 100% | 75 to 100% | 75 to 100% |  |  |  | 
CNC(=O)C(=NOC)c1ccccc1COc1ncc(-c2noc(-c3ccccc3)n2)cc1Cl [Example 7] | 75 to 100% | 75 to 100% | 75 to 100% | 75 to 100% |  |  |  | 
CCCCC(CC)c1nc(-c2cnc(OCc3ccccc3C(=NOC)C(=O)NC)c(Cl)c2)no1 (centres unmarked) [Example 14] | 75 to 100% | 75 to 100% | 0 to 24% | 75 to 100% |  |  |  | 
CNC(=O)C(=NOC)c1ccccc1COc1ccc(-c2nc(C(F)(F)F)no2)cn1 [Example 71] | 75 to 100% | 0 to 24% | 75 to 100% | 75 to 100% |  |  |  | 
CNC(=O)C(=NOC)c1ccccc1COc1ncc(-c2noc(C3CC3)n2)cc1Cl [Example 21] | 75 to 100% | 75 to 100% | 75 to 100% | 75 to 100% |  |  |  | 
COC=C(C(=O)OC)c1ccccc1COc1ncc(-c2noc(C(C)(C)C)n2)cc1Cl [Example 98] | 75 to 100% | 75 to 100% | 0 to 24% | 75 to 100% |  |  |  | 
CNC(=O)C(=NOC)c1cccc(Cl)c1COc1cccc(-c2nc(C(C)(C)C)no2)n1 [Example 86] |  |  |  |  | ++ (75-100% control of plant disease) | - (0-24% control of plant disease) | + (25-74% control of plant disease) | ++ (75-100% control of plant disease)
CNC(=O)C(=NOC)c1ccccc1COc1ccc(-c2noc(-c3ccccc3)n2)cn1 [Example 12] | 75 to 100% | 75 to 100% | 75 to 100% | 75 to 100% |  |  |  | 
CNC(=O)C(=NOC)c1ccccc1COc1ncc(-c2nc(C3CC3)no2)cc1Cl [Example 53] | 75 to 100% | 25 to 74% | 75 to 100% | 75 to 100% |  |  |  | 
CNC(=O)C(=NOC)c1ccccc1COc1ncc(-c2nnc(C)o2)cc1Cl [Example 3] | 75 to 100% | 75 to 100% | 75 to 100% | 75 to 100% |  |  |  | 
CNC(=O)C(=NOC)c1ccccc1COc1ccc(-c2nc(CC(C)C)no2)cn1 [Example 75] | 75 to 100% | 25 to 74% | 0 to 24% | 75 to 100% |  |  |  | 
CNC(=O)C(=NOC)c1ccccc1COc1cccc(-c2nc(C(C)(C)C)no2)n1 [Example 84] | 25 to 74% | 75 to 100% | 75 to 100% | 75 to 100% |  |  |  | 
CNC(=O)C(=NOC)c1cccc(F)c1COc1ncc(-c2noc(C(C)(C)C)n2)cc1Cl [Example 27] |  |  |  |  | ++ (75-100% control of plant disease) | ++ (75-100% control of plant disease) | - (0-24% control of plant disease) | ++ (75-100% control of plant disease)
